± gives the expanded uncertainty stated by the source.
Experiment: xn = mol fraction of the nth substance listed
Conditions: Gas, Burnett expansion method

C=C(F)C(F)(F)F [2,3,3,3-tetrafluoro-1-propene] + FCF
mass density (353.42 K, 2273.3 kPa, x2 = 0.259): 105.33 ± 1.3 kg/m3 | mass density (353.43 K, 588.71 kPa, x2 = 0.874): 12.5 ± 0.15 kg/m3 | mass density (353.43 K, 1253 kPa, x2 = 0.874): 28.21 ± 0.32 kg/m3 | mass density (353.47 K, 861.21 kPa, x2 = 0.874): 18.78 ± 0.22 kg/m3 | mass density (358.31 K, 1928.5 kPa, x2 = 0.698): 54.05 ± 0.5 kg/m3 | mass density (358.32 K, 1240.6 kPa, x2 = 0.449): 40.46 ± 0.36 kg/m3 | mass density (358.33 K, 586.28 kPa, x2 = 0.449): 17.94 ± 0.16 kg/m3 | mass density (358.33 K, 2665 kPa, x2 = 0.698): 81.18 ± 0.81 kg/m3 | mass density (358.34 K, 639.13 kPa, x2 = 0.698): 15.95 ± 0.15 kg/m3 | mass density (358.34 K, 1357.4 kPa, x2 = 0.698): 35.99 ± 0.32 kg/m3 | mass density (358.34 K, 1994 kPa, x2 = 0.119): 94.76 ± 0.63 kg/m3 | mass density (358.34 K, 2418.3 kPa, x2 = 0.449): 91.37 ± 0.99 kg/m3 | mass density (358.34 K, 3167.9 kPa, x2 = 0.449): 137.24 ± 1.5 kg/m3 | mass density (358.34 K, 3474 kPa, x2 = 0.874): 95.77 ± 1.1 kg/m3 | mass density (358.35 K, 591.83 kPa, x2 = 0.259): 20.68 ± 0.16 kg/m3 | mass density (358.35 K, 858.88 kPa, x2 = 0.449): 26.94 ± 0.24 kg/m3 | mass density (358.35 K, 937.43 kPa, x2 = 0.698): 23.96 ± 0.21 kg/m3 | mass density (358.35 K, 1463 kPa, x2 = 0.119): 63.06 ± 0.38 kg/m3 | mass density (358.35 K, 1759.6 kPa, x2 = 0.449): 60.82 ± 0.58 kg/m3 | mass density (358.35 K, 2335.1 kPa, x2 = 0.259): 105.31 ± 1.2 kg/m3 | mass density (358.35 K, 2564.1 kPa, x2 = 0.874): 63.62 ± 0.73 kg/m3 | mass density (358.35 K, 3529.2 kPa, x2 = 0.698): 121.89 ± 1.7 kg/m3 | mass density (358.36 K, 1237.2 kPa, x2 = 0.259): 46.66 ± 0.35 kg/m3 | mass density (358.36 K, 1730.8 kPa, x2 = 0.259): 70.06 ± 0.65 kg/m3 | mass density (358.36 K, 1828.8 kPa, x2 = 0.874): 42.36 ± 0.49 kg/m3 | mass density (358.36 K, 2579.2 kPa, x2 = 0.119): 142.43 ± 1.6 kg/m3 | mass density (358.36 K, 2999.2 kPa, x2 = 0.259): 158.78 ± 2.6 kg/m3 | mass density (358.36 K, 4405.8 kPa, x2 = 0.698): 183.14 ± 2.5 kg/m3 | mass density (358.36 K, 4479.7 kPa, x2 = 0.874): 144.13 ± 2.4 kg/m3 | mass density (358.37 K, 719.85 kPa, x2 = 0.119): 27.94 ± 0.15 kg/m3 | mass density (358.37 K, 862.94 kPa, x2 = 0.259): 31.07 ± 0.22 kg/m3 | mass density (358.37 K, 1037.7 kPa, x2 = 0.119): 41.96 ± 0.24 kg/m3 | mass density (358.38 K, 1274.6 kPa, x2 = 0.874): 28.2 ± 0.32 kg/m3 | mass density (358.38 K, 3076.3 kPa, x2 = 0.119): 213.92 ± 3.2 kg/m3 | mass density (358.39 K, 597.87 kPa, x2 = 0.874): 12.5 ± 0.15 kg/m3 | mass density (358.41 K, 875.21 kPa, x2 = 0.874): 18.78 ± 0.22 kg/m3 | mass density (363.26 K, 1966.8 kPa, x2 = 0.698): 54.03 ± 0.5 kg/m3 | mass density (363.26 K, 2727.3 kPa, x2 = 0.698): 81.16 ± 0.8 kg/m3 | mass density (363.27 K, 1262.7 kPa, x2 = 0.449): 40.45 ± 0.36 kg/m3 | mass density (363.28 K, 595.28 kPa, x2 = 0.449): 17.93 ± 0.16 kg/m3 | mass density (363.28 K, 648.9 kPa, x2 = 0.698): 15.95 ± 0.15 kg/m3 | mass density (363.28 K, 2476.7 kPa, x2 = 0.449): 91.33 ± 0.97 kg/m3 | mass density (363.28 K, 3265.9 kPa, x2 = 0.449): 137.17 ± 1.6 kg/m3 | mass density (363.28 K, 3632.6 kPa, x2 = 0.698): 121.86 ± 1.6 kg/m3 | mass density (363.28 K, 4041.7 kPa, x2 = 0.449): 205.81 ± 3.2 kg/m3 | mass density (363.29 K, 1381.4 kPa, x2 = 0.698): 35.97 ± 0.32 kg/m3 | mass density (363.29 K, 1795.1 kPa, x2 = 0.449): 60.79 ± 0.58 kg/m3 | mass density (363.29 K, 1863 kPa, x2 = 0.874): 42.34 ± 0.49 kg/m3 | mass density (363.29 K, 2043.8 kPa, x2 = 0.119): 94.71 ± 0.62 kg/m3 | mass density (363.29 K, 2396.3 kPa, x2 = 0.259): 105.29 ± 1.3 kg/m3 | mass density (363.29 K, 3100.7 kPa, x2 = 0.259): 158.62 ± 2.5 kg/m3 | mass density (363.29 K, 3726.8 kPa, x2 = 0.259): 238.72 ± 2.7 kg/m3 | mass density (363.29 K, 4575.5 kPa, x2 = 0.698): 183.09 ± 2.5 kg/m3 | mass density (363.3 K, 601.42 kPa, x2 = 0.259): 20.68 ± 0.16 kg/m3 | mass density (363.3 K, 872.75 kPa, x2 = 0.449): 26.93 ± 0.23 kg/m3 | mass density (363.3 K, 1296.1 kPa, x2 = 0.874): 28.19 ± 0.32 kg/m3 | mass density (363.3 K, 1768.3 kPa, x2 = 0.259): 70.06 ± 0.64 kg/m3 | mass density (363.3 K, 2619.4 kPa, x2 = 0.874): 63.6 ± 0.72 kg/m3 | mass density (363.3 K, 2663.3 kPa, x2 = 0.119): 142.34 ± 1.5 kg/m3 | mass density (363.3 K, 3565.6 kPa, x2 = 0.874): 95.7 ± 1.1 kg/m3 | mass density (363.3 K, 4630.5 kPa, x2 = 0.874): 143.96 ± 2.4 kg/m3 | mass density (363.31 K, 731.75 kPa, x2 = 0.119): 27.93 ± 0.15 kg/m3 | mass density (363.31 K, 952.86 kPa, x2 = 0.698): 23.95 ± 0.21 kg/m3 | mass density (363.31 K, 1056.3 kPa, x2 = 0.119): 41.95 ± 0.24 kg/m3 | mass density (363.31 K, 1260.4 kPa, x2 = 0.259): 46.66 ± 0.35 kg/m3 | mass density (363.31 K, 3222.3 kPa, x2 = 0.119): 213.79 ± 2.9 kg/m3 | mass density (363.32 K, 877.52 kPa, x2 = 0.259): 31.06 ± 0.22 kg/m3 | mass density (363.32 K, 1493.6 kPa, x2 = 0.119): 63.03 ± 0.37 kg/m3 | mass density (363.33 K, 606.82 kPa, x2 = 0.874): 12.5 ± 0.15 kg/m3 | mass density (363.33 K, 888.85 kPa, x2 = 0.874): 18.77 ± 0.21 kg/m3 | mass density (368.2 K, 2004.8 kPa, x2 = 0.698): 54.02 ± 0.5 kg/m3 | mass density (368.22 K, 604.3 kPa, x2 = 0.449): 17.93 ± 0.16 kg/m3 | mass density (368.22 K, 658.7 kPa, x2 = 0.698): 15.94 ± 0.14 kg/m3 | mass density (368.22 K, 1285 kPa, x2 = 0.449): 40.44 ± 0.36 kg/m3 | mass density (368.22 K, 2534.6 kPa, x2 = 0.449): 91.28 ± 0.96 kg/m3 | mass density (368.22 K, 2789.6 kPa, x2 = 0.698): 81.13 ± 0.79 kg/m3 | mass density (368.22 K, 3362.6 kPa, x2 = 0.449): 137.11 ± 1.6 kg/m3 | mass density (368.22 K, 4205.2 kPa, x2 = 0.449): 205.77 ± 7.4 kg/m3 | mass density (368.23 K, 967.59 kPa, x2 = 0.698): 23.94 ± 0.21 kg/m3 | mass density (368.23 K, 1830.4 kPa, x2 = 0.449): 60.77 ± 0.57 kg/m3 | mass density (368.23 K, 3201.4 kPa, x2 = 0.259): 158.47 ± 2.4 kg/m3 | mass density (368.23 K, 3655.1 kPa, x2 = 0.874): 95.63 ± 1.1 kg/m3 | mass density (368.23 K, 3734.8 kPa, x2 = 0.698): 121.83 ± 1.6 kg/m3 | mass density (368.23 K, 3898.2 kPa, x2 = 0.259): 238.37 ± 3.1 kg/m3 | mass density (368.23 K, 4743.3 kPa, x2 = 0.698): 183.03 ± 2.4 kg/m3 | mass density (368.24 K, 610.69 kPa, x2 = 0.259): 20.68 ± 0.16 kg/m3 | mass density (368.24 K, 1317.5 kPa, x2 = 0.874): 28.18 ± 0.32 kg/m3 | mass density (368.24 K, 1405.2 kPa, x2 = 0.698): 35.96 ± 0.32 kg/m3 | mass density (368.24 K, 1523.3 kPa, x2 = 0.119): 63.01 ± 0.37 kg/m3 | mass density (368.24 K, 1805.3 kPa, x2 = 0.259): 70.05 ± 0.63 kg/m3 | mass density (368.24 K, 1897.2 kPa, x2 = 0.874): 42.33 ± 0.49 kg/m3 | mass density (368.24 K, 2093.2 kPa, x2 = 0.119): 94.66 ± 0.61 kg/m3 | mass density (368.24 K, 2457.3 kPa, x2 = 0.259): 105.26 ± 1.2 kg/m3 | mass density (368.24 K, 2674.2 kPa, x2 = 0.874): 63.58 ± 0.72 kg/m3 | mass density (368.24 K, 4778.9 kPa, x2 = 0.874): 143.8 ± 2.3 kg/m3 | mass density (368.25 K, 743.56 kPa, x2 = 0.119): 27.92 ± 0.15 kg/m3 | mass density (368.25 K, 886.98 kPa, x2 = 0.449): 26.92 ± 0.23 kg/m3 | mass density (368.25 K, 1075 kPa, x2 = 0.119): 41.94 ± 0.24 kg/m3 | mass density (368.25 K, 1283.3 kPa, x2 = 0.259): 46.65 ± 0.34 kg/m3 | mass density (368.25 K, 2746.3 kPa, x2 = 0.119): 142.24 ± 1.4 kg/m3 | mass density (368.25 K, 4383.2 kPa, x2 = 0.259): 361.18 ± 5.9 kg/m3 | mass density (368.26 K, 891.98 kPa, x2 = 0.259): 31.06 ± 0.22 kg/m3 | mass density (368.26 K, 3365.6 kPa, x2 = 0.119): 213.65 ± 3.7 kg/m3 | mass density (368.27 K, 3774.3 kPa, x2 = 0.119): 320.57 ± 8.2 kg/m3 | mass density (368.28 K, 615.74 kPa, x2 = 0.874): 12.49 ± 0.15 kg/m3 | mass density (368.29 K, 902.66 kPa, x2 = 0.874): 18.76 ± 0.21 kg/m3 | mass density (373.13 K, 2042.5 kPa, x2 = 0.698): 54 ± 0.5 kg/m3 | mass density (373.14 K, 613.24 kPa, x2 = 0.449): 17.92 ± 0.16 kg/m3 | mass density (373.15 K, 668.24 kPa, x2 = 0.698): 15.94 ± 0.14 kg/m3 | mass density (373.15 K, 1428.2 kPa, x2 = 0.698): 35.95 ± 0.32 kg/m3 | mass density (373.15 K, 2592.1 kPa, x2 = 0.449): 91.24 ± 0.94 kg/m3 | mass density (373.15 K, 4365.9 kPa, x2 = 0.449): 205.72 ± 6.9 kg/m3 | mass density (373.15 K, 4909.8 kPa, x2 = 0.698): 182.98 ± 2.3 kg/m3 | mass density (373.16 K, 982.7 kPa, x2 = 0.698): 23.94 ± 0.21 kg/m3 | mass density (373.16 K, 2850.9 kPa, x2 = 0.698): 81.11 ± 0.79 kg/m3 | mass density (373.16 K, 3458.2 kPa, x2 = 0.449): 137.04 ± 1.5 kg/m3 | mass density (373.16 K, 3835.9 kPa, x2 = 0.698): 121.81 ± 1.6 kg/m3 | mass density (373.17 K, 1307 kPa, x2 = 0.449): 40.43 ± 0.36 kg/m3 | mass density (373.17 K, 1552.9 kPa, x2 = 0.119): 62.98 ± 0.37 kg/m3 | mass density (373.17 K, 1842 kPa, x2 = 0.259): 70.05 ± 0.62 kg/m3 | mass density (373.17 K, 2141.9 kPa, x2 = 0.119): 94.62 ± 0.6 kg/m3 | mass density (373.17 K, 3744.3 kPa, x2 = 0.874): 95.56 ± 1.1 kg/m3

Source: the NIST ThermoML archive (doi:10.1016/j.jct.2019.02.028)
